Data on 45 compounds can be found in patent US20230174488A1 (priority 2020, published 2023).

The experiment has as its target SARS-CoV-2 M^PRO (Severe acute respiratory syndrome coronavirus 2, UniProt P0DTD1). Put plainly: biochemical. It counts as biochemical. The settings on record: In vitro potency data; 30 min pre-incubation, 25 nM M^pro, 25 µM substrate; read-out: IC50.

Turning to `CC(C)(C)NC(=O)C(c1cccnc1)N(C(=O)CCl)c1ccc(C(C)(C)C)cc1` (stereo not drawn) [INSCoV-534, N-(Tert-Butyl)-2-(N-(4-(Tert-Butyl)Phenyl)-2-Chloroacetamido)-2-(Pyridin-3-yl)Acetamide], the half-inhibitory concentration (IC50) (in general, the concentration that inhibits the measured activity by half) turned out to be 1280 nM.
Turning to `CC(C)(C)c1ccc(N(C(=O)CCl)C(C(=O)NC2CCCCC2)c2cncc(O)c2)cc1` (stereo not drawn) [INSCoV-535, N-(4-(Tert-Butyl)Phenyl)-2-Chloro-N-(2-(Cyclohexylamino)-1-(5-Hydroxypyridin-3-yl)-2-Oxoethyl)Acetamide], the IC50 was 1040 nM.
Then `CC(C)(C)c1ccc(N(C(=O)CCl)C(C(=O)NC2CCCCC2)c2cncnc2)cc1` (stereo not drawn) [INSCoV-536, N-(4-(Tert-Butyl)Phenyl)-2-Chloro-N-(2-(Cyclohexylamino)-2-Oxo-1-(Pyrimidin-5-yl)Ethyl)Acetamide], with 620 nM.
Then `CC(C)(C)c1ccc(N(C(=O)CCl)C(C(=O)NC2CCCCC2)c2ccnnc2)cc1` (stereo not drawn) [INSCoV-537, N-(4-(Tert-Butyl)Phenyl)-2-Chloro-N-(2-(Cyclohexylamino)-2-Oxo-1-(Pyridazin-4-yl)Ethyl)Acetamide], with 420 nM; and `O=C(NC1CCC(F)(F)CC1)C(c1ccnnc1)N(C(=O)CCl)c1ccc(-c2cnco2)cc1` (stereo not drawn) [INSCoV-537I, 2-Chloro-N-(2-((4,4-Difluorocyclohexyl)Amino)-2-Oxo-1-(Pyridazin-4-yl)Ethyl)-N-(4-(Oxazol-5-yl)Phenyl)Acetamide], with 270 nM; and `O=C(NC1CCC(F)(F)CC1)C(c1ccnnc1)N(C(=O)CCl)c1ccc(-c2ccno2)cc1` (stereo not drawn) [INSCoV-537K, 2-Chloro-N-(2-((4,4-Difluorocyclohexyl)Amino)-2-Oxo-1-(Pyridazin-4-yl)Ethyl)-N-(4-(Isoxazol-5-yl)Phenyl)Acetamide], with 360 nM.
With `CC(C)(C)c1ccc(N(C(=O)CCl)C(C(=O)NC2CCCCC2)c2cnccn2)cc1` (stereo not drawn) [INSCoV-538, N-(4-(Tert-Butyl)Phenyl)-2-Chloro-N-(2-(Cyclohexylamino)-2-Oxo-1-(Pyrazin-2-yl)Ethyl)Acetamide] the figure was 280 nM; with `CC(C)(C)c1ccc(N(C(=O)CCl)[C@@](C)(C(=O)NC2CCCCC2)c2cccnc2)cc1` [INSCoV-538A(1)], 230 nM; with `CC(C)(C)c1ccc(N(C(=O)CCl)[C@](C)(C(=O)NC2CCCCC2)c2cccnc2)cc1` [INSCoV-538A(2)], 9600 nM.
Regarding `CC(C)(C)c1ccc(N(C(=O)CCl)C(C)(C(=O)NC2CCCCC2)c2cccnc2)cc1` (stereo not drawn) [INSCoV-538A], the IC50 turned out to be 900 nM.
With `CC(C)(C)c1ccc(N(C(=O)CCl)C(C(=O)NC2CCCCC2)c2cncc(C#N)c2)cc1` (stereo not drawn) [INSCoV-539, N-(4-(Tert-Butyl)Phenyl)-2-Chloro-N-(1-(5-Cyanopyridin-3-yl)-2-(Cyclohexylamino)-2-Oxoethyl)Acetamide] the figure was 800 nM.
With `CC(C)(C)c1ccc(N(C(=O)CCl)C(C(=O)NC2CCCCC2)c2c[nH]c3ncccc23)cc1` (stereo not drawn) [INSCoV-549] the figure was 2490 nM; with `O=C(NC1CCCCC1)C(c1cccnc1)N(CCc1cccc(F)c1)C(=O)CCl` (stereo not drawn) [INSCoV-558, 2-Chloro-N-(2-(Cyclohexylamino)-2-Oxo-1-(Pyridin-3-yl)Ethyl)-N-(3-Fluorophenethyl)Acetamide], 330 nM.
Then `O=C(NC1CCS(=O)(=O)CC1)C(c1cncnc1)N(CCc1cccc(F)c1)C(=O)CCl` (stereo not drawn) [INSCoV-558A, 2-Chloro-N-(2-((1,1-Dioxidotetrahydro-2H-Thiopyran-4-yl)Amino)-2-Oxo-1-(Pyrimidin-5-yl)Ethyl)-N-(3-Fluorophenethyl)Acetamide], with 470 nM; and `O=C(NC1CCCCC1)C(c1cccnc1)N(CCc1ccc(F)cc1)C(=O)CCl` (stereo not drawn) [INSCoV-559, 2-Chloro-N-(2-(Cyclohexylamino)-2-Oxo-1-(Pyridin-3-yl)Ethyl)-N-(4-Fluorophenethyl)Acetamide], with 1080 nM; and `COc1ccccc1CCN(C(=O)CCl)C(C(=O)NC1CCCCC1)c1cccnc1` (stereo not drawn) [INSCoV-560A, 2-Chloro-N-(2-(Cyclohexylamino)-2-Oxo-1-(Pyridin-3-yl)Ethyl)-N-(2-Methoxyphenethyl)Acetamide], with 4340 nM.
On to `C#CC(=O)N(c1ccc(C(C)(C)C)cc1)C(C(=O)NC1CCCCC1)c1cccnc1` (stereo not drawn) [INSCoV-571], for which the IC50 is 6280 nM.
Then `O=C(NC1CCCCC1)C(c1cccnc1)N(Cc1cccc(C(F)(F)F)c1)C(=O)CCl` (stereo not drawn) [INSCoV-574, 2-Chloro-N-(2-(Cyclohexylamino)-2-Oxo-1-(Pyridin-3-yl)Ethyl)-N-(3-(Trifluoromethyl)Benzyl)Acetamide], with 1270 nM; and `O=C(NC1CCCCC1)C(c1cccnc1)N(Cc1ccccc1C(F)(F)F)C(=O)CCl` (stereo not drawn) [INSCoV-574A, 2-Chloro-N-(2-(Cyclohexylamino)-2-Oxo-1-(Pyridin-3-yl)Ethyl)-N-(2-(Trifluoromethyl)Benzyl)Acetamide], with 4970 nM.
On to `O=C(NC1CCCCC1)C(c1cccnc1)N(C(=O)CCl)c1ccc2ccoc2c1` (stereo not drawn) [INSCoV-576, 2-[Benzofuran-6-yl-(2-chloroacetyl)amino]-N-cyclohexyl-2-(3-pyridyl)acetamide], for which the IC50 is 4670 nM.
Then `O=C(NC1CCOCC1)C(c1cccnc1)N(C(=O)CCl)c1ccc(-c2cnco2)cc1` (stereo not drawn) [INSCoV-600A(1), 2-Chloro-N-(4-(Oxazol-5-yl)Phenyl)-N-(2-Oxo-1-(Pyridin-3-yl)-2-((Tetrahydro-2H-Pyran-4-yl)Amino)Ethyl)Acetamide], with 840 nM; and `O=C(NC1CCOCC1)C(c1cncnc1)N(C(=O)CCl)c1ccc(-c2cnco2)cc1` (stereo not drawn) [INSCoV-600A(2), 2-Chloro-N-(4-(Oxazol-5-yl)Phenyl)-N-(2-Oxo-1-(Pyrimidin-5-yl)-2-((Tetrahydro-2H-Pyran-4-yl)Amino)Ethyl)Acetamide], with 430 nM; and `O=C(NC1CCOCC1)C(c1cnccn1)N(C(=O)CCl)c1ccc(-c2cnco2)cc1` (stereo not drawn) [INSCoV-600A(3), 2-Chloro-N-(4-(Oxazol-5-yl)Phenyl)-N-(2-oxo-1-(Pyrazin-2-yl)-2-((Tetrahydro-2H-Pyran-4-yl)Amino)Ethyl)Acetamide], with 410 nM.
Then `O=C(NC1CCOCC1)C(c1ccnnc1)N(C(=O)CCl)c1ccc(-c2cnco2)cc1` (stereo not drawn) [INSCoV-600A], with 540 nM; and `O=C(N[C@H]1CCC(F)(F)C1)C(c1cncnc1)N(C(=O)CCl)c1ccc(-c2cnco2)cc1` (stereo partly drawn) [INSCoV-600B(2)], with 190 nM; and `O=C(NC1CCC(F)(F)C1)C(c1cncnc1)N(C(=O)CCl)c1ccc(-c2cnco2)cc1` (stereo not drawn) [INSCoV-600B, 2-(N-(2-chloroacetyl)-4-oxazol-5-yl-anilino)-N-(3,3-difluorocyclopentyl)-2-pyrimidin-5-yl-acetamide], with 290 nM.
With `O=C(N[C@H]1CCOC1)C(c1cncnc1)N(C(=O)CCl)c1ccc(-c2cnco2)cc1` (stereo partly drawn) [INSCoV-600C(1)] the figure was 270 nM.
Take `O=C(N[C@H]1CCOC1)[C@@H](c1cncnc1)N(C(=O)CCl)c1ccc(-c2cnco2)cc1` [INSCoV-600C(1A)]: the IC50 was found to be 340 nM.
`O=C(N[C@H]1CCOC1)[C@H](c1cncnc1)N(C(=O)CCl)c1ccc(-c2cnco2)cc1` [INSCoV-600C(1B)]: the IC50 was 310 nM.
Regarding `O=C(N[C@@H]1CCOC1)C(c1cncnc1)N(C(=O)CCl)c1ccc(-c2cnco2)cc1` (stereo partly drawn) [INSCoV-600C(2)], the half-inhibitory concentration (IC50) was found to be 200 nM.
With `O=C(N[C@@H]1CCOC1)[C@H](c1cncnc1)N(C(=O)CCl)c1ccc(-c2cnco2)cc1` [INSCoV-600C(2A)], the IC50 stood at 450 nM.
Then `O=C(N[C@@H]1CCOC1)[C@@H](c1cncnc1)N(C(=O)CCl)c1ccc(-c2cnco2)cc1` [INSCoV-600C(2B)], with 160 nM; and `O=C(NC1CCOC1)C(c1cncnc1)N(C(=O)CCl)c1ccc(-c2cnco2)cc1` (stereo not drawn) [INSCoV-600C], with 220 nM; and `O=C(NC1CC(F)(F)C1)C(c1cncnc1)N(C(=O)CCl)c1ccc(-c2cnco2)cc1` (stereo not drawn) [INSCoV-600D], with 520 nM.
As to `CC1(NC(=O)C(c2cncnc2)N(C(=O)CCl)c2ccc(-c3cnco3)cc2)COC1` (stereo not drawn) [INSCoV-600E, 2-(N-(2-chloroacetyl)-4-oxazol-5-yl-anilino)-N-(3-methyloxetan-3-yl)-2-pyrimidin-5-yl-acetamide], the half-inhibitory concentration (IC50) is 570 nM.
Then `O=C(NC1CC2(C1)CC(F)(F)C2)C(c1cncnc1)N(C(=O)CCl)c1ccc(-c2cnco2)cc1` (stereo not drawn) [INSCoV-600F], with 530 nM; and `O=C(NC1CC2(COC2)C1)C(c1cncnc1)N(C(=O)CCl)c1ccc(-c2cnco2)cc1` (stereo not drawn) [INSCoV-600G], with 990 nM.
With `O=C(NC1CC2(C1)CS(=O)(=O)C2)C(c1cncnc1)N(C(=O)CCl)c1ccc(-c2cnco2)cc1` (stereo not drawn) [INSCoV-600H] the figure was 660 nM; with `O=C(NC1CCC(F)(F)CC1)C(c1cncnc1)N(C(=O)CCl)c1ccc(-c2ccno2)cc1` (stereo not drawn) [INSCoV-600J, 2-Chloro-N-(2-((4,4-difluorocyclohexyl)amino)-2-oxo-1-(pyrimidin-5-yl)ethyl)-N-(4-(isoxazol-5-yl)phenyl)acetamide], 110 nM; with `O=C(NC1CCC(F)(F)CC1)C(c1cncnc1)N(C(=O)CCl)c1ccc(-c2ccncn2)cc1` (stereo not drawn) [INSCoV-600L, 2-(N-(2-chloroacetyl)-4-pyrimidin-4-yl-anilino)-N-(4,4-difluorocyclohexyl)-2-pyrimidin-5-yl-acetamide], 450 nM.
With `CN1CCC(NC(=O)C(c2cncnc2)N(C(=O)CCl)c2ccc(-c3cnco3)cc2)CC1` (stereo not drawn) [INSCoV-600M, 2-(N-(2-chloroacetyl)-4-oxazol-5-yl-anilino)-N-(1-methyl-4-piperidyl)-2-pyrimidin-5-yl-acetamide] the figure was 500 nM; with `Cc1cc(F)cc(F)c1NC(=O)C(c1cncnc1)N(C(=O)CCl)c1ccc(-c2cnco2)cc1` (stereo not drawn) [INSCoV-600N], 1060 nM.
In the case of `O=C(NC1CCC(F)(F)CC1)[C@H](c1cncnc1)N(CCc1cccc(F)c1)C(=O)C1CO1` (stereo partly drawn) [INSCoV-600Q(1)], the IC50 turned out to be 22600 nM.
With `O=C(NC1CCC(F)(F)CC1)[C@@H](c1cncnc1)N(CCc1cccc(F)c1)C(=O)C1CO1` (stereo partly drawn) [INSCoV-600Q(2)] the figure was 2220 nM; with `O=C(NC1CCC(F)(F)CC1)C(c1cncnc1)N(CCc1cccc(F)c1)C(=O)C1CO1` (stereo not drawn) [INSCoV-600Q], 6980 nM.
